Experimental data reported in publication PMC9073595, “Synthesis, human topoisomerase IIα inhibitory properties and molecular modeling studies of anti-proliferative curcumin mimics” (RSC Advances, 2019).

How the values were obtained:
[1] = test system: RPE1 (normal human immortalized retinal pigment epithelial cell line); assay: MTT assay on normal cells, RPE1; type: cell-based; conditions: RPE-1, RPE1 normal (non-cancer) cell line, read-out: IC50, μM ± SD, RPE1
Procedure: In-vitro antitumor screening
The targeted piperidinecarboxamides 24‒51 were screened for their antitumor properties against HCT116 (colon), MCF7 (breast) and A431 (squamous skin) carcinoma cell lines by the standard mitochondrial dependent reduction of yellow MTT [3-(4,5-dimethylthiazol-2-yl)-2,5-diphenyl-tetrazolium bromide] to purple formazan technique.11 Cells were suspended in McCoy’s 5A medium for HCT116, DMEM for MCF-7 and A431 in addition to 1% antibiotic–antimycotic mixture (10000 μg ml-1 potassium penicillin, 10000 μg ml-1 streptomycin sulfate and 25 μg ml-1 amphotericin B), 10% fetal bovine serum and 1% L-glutamine at 37 °C, under 5% CO2 and 95% humidity. Cells were seeded at concentration of 30000 cells per well in fresh complete growth medium in 96-well tissue culture microtiter plates for 24 h. Media was aspirated, fresh complete medium was added and cells were incubated with different concentrations of the tested compound to give a final concentration of [50, 25, 12.5 and 6.25 μM ([…] and 0.375 μM for the high potent analogues)]. 0.5% DMSO was used as negative control and 5-fluorouracil was used as positive control (standard reference). Triplicate wells were prepared for each individual dose. After 72 h of incubation, medium was aspirated, 40 μl MTT salt (2.5 mg ml-1) were added to each well and incubated for further 4 h at 37 °C.
To stop the reaction and dissolve the formed crystals, 150 μl of 10% sodium dodecyl sulfate (SDS) in deionized water were added to each well and incubated overnight at 37 °C. The absorbance was then measured at 570 nm and a reference wavelength of 595 nm.
Data were collected as mean values for experiments performed in triplicates for each individual dose which had been measured by MTT assay. Control experiments did […]
survival was calculated according to equ. (1).
Surviving fraction = … . (1)
The synthesized compounds 24‒51 were also tested against RPE1 (normal human immortalized retinal pigment epithelial cell line) cell to determine the toxicity/selectivity […]
towards normal cells relative to the carcinoma cell lines utilized. The IC50 (concentration […]
was determined using Graph-Pad PRISM version-5 software. Statistical calculations for determination of the mean and standard error values were determined by SPSS 16 […]
8:1 which is the ratio between the data points and the number of QSAR descriptor).
Human DNA topoisomerase IIα inhibitory properties

[2] = test system: HCT116 (colon) carcinoma cell line; assay: MTT anti-proliferative assay, HCT116; type: cell-based; conditions: Homo sapiens, HCT-116, 72 h; read-out: IC50, μM ± SD, HCT116
[3] = test system: MCF7 (breast) carcinoma cell line; assay: MTT anti-proliferative assay, MCF7; type: cell-based; conditions: Homo sapiens, MCF7, 72 h; read-out: IC50, μM ± SD, MCF7
[4] = test system: A431 (squamous skin) carcinoma cell line; assay: MTT anti-proliferative assay, A431; type: cell-based; conditions: Homo sapiens, A-431, 72 h; read-out: IC50, μM ± SD, A431
[5] = target: T1, human DNA topoisomerase IIα (Homo sapiens, UniProt P11388); assay: Human DNA topoisomerase IIα activity assay (TopoGEN kit, plasmid based); type: biochemical
T1 construct: purchased TopoGEN, Inc
T1 sequence (P11388 whole entry): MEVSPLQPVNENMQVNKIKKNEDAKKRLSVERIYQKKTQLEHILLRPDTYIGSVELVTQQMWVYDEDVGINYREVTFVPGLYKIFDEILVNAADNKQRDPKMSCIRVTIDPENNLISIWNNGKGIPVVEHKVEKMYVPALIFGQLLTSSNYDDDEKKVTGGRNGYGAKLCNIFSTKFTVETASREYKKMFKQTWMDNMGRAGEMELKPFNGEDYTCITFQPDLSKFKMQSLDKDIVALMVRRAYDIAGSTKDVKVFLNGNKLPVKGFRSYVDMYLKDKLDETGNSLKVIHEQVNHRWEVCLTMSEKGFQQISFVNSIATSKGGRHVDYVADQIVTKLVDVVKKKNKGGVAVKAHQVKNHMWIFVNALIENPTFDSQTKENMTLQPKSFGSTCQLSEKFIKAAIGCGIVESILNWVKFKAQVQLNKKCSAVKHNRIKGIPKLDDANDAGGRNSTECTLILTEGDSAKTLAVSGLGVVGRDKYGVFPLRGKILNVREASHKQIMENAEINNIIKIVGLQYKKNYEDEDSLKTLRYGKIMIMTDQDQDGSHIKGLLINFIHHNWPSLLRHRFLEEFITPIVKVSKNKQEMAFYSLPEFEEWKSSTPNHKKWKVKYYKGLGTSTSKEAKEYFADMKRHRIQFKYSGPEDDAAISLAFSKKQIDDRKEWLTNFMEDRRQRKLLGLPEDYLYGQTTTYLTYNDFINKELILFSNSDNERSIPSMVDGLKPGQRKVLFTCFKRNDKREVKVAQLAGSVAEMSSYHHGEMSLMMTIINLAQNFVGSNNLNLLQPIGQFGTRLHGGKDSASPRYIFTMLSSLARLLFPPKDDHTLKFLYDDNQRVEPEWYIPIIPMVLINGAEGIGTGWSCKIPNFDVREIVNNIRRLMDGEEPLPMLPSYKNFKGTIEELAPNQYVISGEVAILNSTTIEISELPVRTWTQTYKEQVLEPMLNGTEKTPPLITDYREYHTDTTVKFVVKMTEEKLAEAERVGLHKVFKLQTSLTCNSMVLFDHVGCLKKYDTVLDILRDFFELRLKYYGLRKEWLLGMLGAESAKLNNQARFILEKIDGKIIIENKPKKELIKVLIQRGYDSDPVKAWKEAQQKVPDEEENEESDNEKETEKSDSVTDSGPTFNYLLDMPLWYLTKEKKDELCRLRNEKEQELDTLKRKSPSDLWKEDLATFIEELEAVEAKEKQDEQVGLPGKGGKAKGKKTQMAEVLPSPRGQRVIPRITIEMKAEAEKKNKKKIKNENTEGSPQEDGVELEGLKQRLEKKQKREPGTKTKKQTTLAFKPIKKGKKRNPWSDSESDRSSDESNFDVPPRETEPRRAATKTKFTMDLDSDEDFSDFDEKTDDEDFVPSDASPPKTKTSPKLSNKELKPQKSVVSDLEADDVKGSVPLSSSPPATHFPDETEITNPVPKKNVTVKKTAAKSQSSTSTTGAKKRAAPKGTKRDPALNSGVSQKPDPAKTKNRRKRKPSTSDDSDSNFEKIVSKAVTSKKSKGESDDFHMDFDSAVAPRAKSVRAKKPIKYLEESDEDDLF

Structure (SMILES)	IC50 [2] [µM]	IC50 [3] [µM]	melting point [°C]	IC50 [4] [µM]	IC50 [5] [µM]	IC50 [1] [µM]
COc1ccc(NC(=O)N2C/C(=C\c3ccc(Cl)cc3)C(=O)/C(=C/c3ccc(Cl)cc3)C2)cc1 [Compound 31, 3,5-Bis[(E)-4-chlorobenzylidene]-N-(4-methoxyphenyl)-4-oxopiperidine-1-carboxamide]	1.03 ± 0.13	1.44 ± 0.19	210 to 212	1.24 ± 0.14	–	7.5 ± 1.75
O=C1/C(=C/c2ccc(Cl)cc2)CN(C(=O)Nc2ccc(Cl)cc2)C/C1=C\c1ccc(Cl)cc1 [Compound 30, 3,5-Bis[(E)-4-chlorobenzylidene]-N-(4-chlorophenyl)-4-oxopiperidine-1-carboxamide]	0.58 ± 0.07	1.13 ± 0.29	185 to 187	0.64 ± 0.08	41.8 ± 2.42	4.89 ± 1.97
CCNC(=O)N1C/C(=C\c2ccc(F)cc2)C(=O)/C(=C/c2ccc(F)cc2)C1 [Compound 37, N-Ethyl-3,5-bis[(E)-4-fluorobenzylidene]-4-oxopiperidine-1-carboxamide]	0.57 ± 0.07	2.32 ± 0.3	180 to 182	1.18 ± 0.11	27.2 ± 1.72	9.78 ± 1.53
CCNC(=O)N1C/C(=C\c2ccc(Cl)cc2)C(=O)/C(=C/c2ccc(Cl)cc2)C1 [Compound 32, 3,5-Bis[(E)-4-chlorobenzylidene]-N-ethyl-4-oxopiperidine-1-carboxamide]	1.04 ± 0.11	2.35 ± 0.23	211 to 213	1.31 ± 0.09	–	12.1 ± 1.76
O=C1/C(=C/c2ccccc2)CN(C(=O)Nc2ccc(Cl)cc2)C/C1=C\c1ccccc1 [Compound 25, 3,5-Di[(E)-benzylidene]-N-(4-chlorophenyl)-4-oxopiperidine-1-carboxamide]	1.03 ± 0.29	2.09 ± 0.26	186 to 188	2.51 ± 0.24	–	22.1 ± 2.06
O=C1/C(=C/c2ccccc2)CN(C(=O)NCc2ccccc2)C/C1=C\c1ccccc1 [Compound 28, N-Benzyl-3,5-di[(E)-benzylidene]-4-oxopiperidine-1-carboxamide]	1.31 ± 0.22	2.58 ± 0.3	163 to 165	2.58 ± 0.27	–	12 ± 1.76
O=C1/C(=C/c2ccc(F)cc2)CN(C(=O)NCc2ccccc2)C/C1=C\c1ccc(F)cc1 [Compound 38, N-Benzyl-3,5-bis[(E)-4-fluorobenzylidene]-4-oxopiperidine-1-carboxamide]	0.56 ± 0.03	2.16 ± 0.15	178 to 180	1.33 ± 0.17	35 ± 2.08	10.9 ± 1.42
CCNC(=O)N1C/C(=C\c2ccccc2)C(=O)/C(=C/c2ccccc2)C1 [Compound 27, 3,5-Di[(E)-benzylidene]-N-ethyl-4-oxopiperidine-1-carboxamide]	1.61 ± 0.14	2.95 ± 0.24	172 to 174	2.56 ± 0.29	33.6 ± 1.3	> 50
COc1ccc(NC(=O)N2C/C(=C\c3ccccc3)C(=O)/C(=C/c3ccccc3)C2)cc1 [Compound 26, 3,5-Di[(E)-benzylidene]-N-(4-methoxyphenyl)-4-oxopiperidine-1-carboxamide]	1.43 ± 0.2	2.48 ± 0.31	184 to 186	2.83 ± 0.36	–	17.7 ± 1.98
COc1ccc(/C=C\c2cc(OC)c(OC)c(OC)c2)cc1O [Combretastatin A-4, reference compound]	–	–	–	–	22 ± 0.85	–
COc1cc(/C=C/C(=O)CC(=O)/C=C/c2ccc(O)c(OC)c2)ccc1O [Curcumin]	38.2 ± 2.36	16 ± 2.04	–	–	–	–
O=C1/C(=C/c2ccc(Cl)cc2)CN(C(=O)NCc2ccccc2)C/C1=C\c1ccc(Cl)cc1 [Compound 33, N-Benzyl-3,5-bis[(E)-4-chlorobenzylidene]-4-oxopiperidine-1-carboxamide]	1.13 ± 0.19	2.14 ± 0.26	199 to 201	1.45 ± 0.12	–	11.4 ± 1.68
O=C1/C(=C/c2ccccc2)CN(C(=O)Nc2ccccc2)C/C1=C\c1ccccc1 [Compound 24, 3,5-Di[(E)-benzylidene]-4-oxo-N-phenylpiperidine-1-carboxamide]	1.08 ± 0.18	1.83 ± 0.14	179 to 181	2.49 ± 0.31	–	16.6 ± 1.57

The next lines start with results.

IC50 [2] [µM]	IC50 [3] [µM]	melting point [°C]	IC50 [4] [µM]	IC50 [5] [µM]	Structure (SMILES)	IC50 [1] [µM]
20.1 ± 2.44	21.7 ± 2.78	197 to 199	40.6 ± 2.88	–	CCNC(=O)N1C/C(=C\c2cccs2)C(=O)/C(=C/c2cccs2)C1 [Compound 50, (3E,5E)-N-Ethyl-4-oxo-3,5-bis(thiophen-2-ylmethylene)piperidine-1-carboxamide]	47.4 ± 2.66
1.11 ± 0.09	4.17 ± 0.27	185 to 187	2.85 ± 0.16	46.2 ± 1.79	COc1ccc(/C=C2\CN(C(=O)Nc3ccc(Cl)cc3)C/C(=C\c3ccc(OC)cc3)C2=O)cc1 [Compound 44, N-(4-Chlorophenyl)-3,5-bis[(E)-4-methoxybenzylidene]-4-oxopiperidine-1-carboxamide]	> 50
1.29 ± 0.19	4.89 ± 0.25	177 to 179	7.98 ± 1.34	33 ± 1.28	COc1ccc(/C=C2\CN(C(=O)NCc3ccccc3)C/C(=C\c3ccc(OC)cc3)C2=O)cc1 [Compound 47, N-Benzyl-3,5-bis[(E)-4-methoxybenzylidene]-4-oxopiperidine-1-carboxamide]	> 50
2.26 ± 0.23	4.58 ± 0.28	174 to 176	2.64 ± 0.27	50.2 ± 1.94	CCNC(=O)N1C/C(=C\c2ccc(C)cc2)C(=O)/C(=C/c2ccc(C)cc2)C1 [Compound 41, N-Ethyl-3,5-bis[(E)-4-methylbenzylidene]-4-oxopiperidine-1-carboxamide]	18.9 ± 1.33
2.73 ± 0.2	5.1 ± 0.3	230 to 232	4.9 ± 0.34	40.3 ± 1.56	COc1ccc(NC(=O)N2C/C(=C\c3ccc(C)cc3)C(=O)/C(=C/c3ccc(C)cc3)C2)cc1 [Compound 40, N-(4-Methoxyphenyl)-3,5-bis[(E)-4-methylbenzylidene]-4-oxopiperidine-1-carboxamide]	> 50
> 50	33.7 ± 1.38	–	> 50	–	O=C1/C(=C/c2cccs2)CN(C(=O)Nc2ccccc2)C/C1=C\c1cccs1 [Compound 48, (3E,5E)-4-Oxo-N-phenyl-3,5-bis(thiophen-2-ylmethylene)piperidine-1-carboxamide]	> 50
1.23 ± 0.15	3.96 ± 0.23	190 to 192	2.72 ± 0.2	28.3 ± 1.09	COc1ccc(/C=C2\CN(C(=O)Nc3ccccc3)C/C(=C\c3ccc(OC)cc3)C2=O)cc1 [Compound 43, 3,5-Bis[(E)-4-methoxybenzylidene]-4-oxo-N-phenylpiperidine-1-carboxamide]	> 50
40.8 ± 2.61	24.7 ± 1.99	194 to 196	> 50	–	COc1ccc(NC(=O)N2C/C(=C\c3cccs3)C(=O)/C(=C/c3cccs3)C2)cc1 [Compound 49, (3E,5E)-N-(4-Methoxyphenyl)-4-oxo-3,5-bis(thiophen-2-ylmethylene)piperidine-1-carboxamide]	> 50
23 ± 1.82	4.9 ± 0.26	166 to 168	8.75 ± 0.4	31.5 ± 1.22	Cc1ccc(/C=C2\CN(C(=O)NCc3ccccc3)C/C(=C\c3ccc(C)cc3)C2=O)cc1 [Compound 42, N-Benzyl-3,5-bis[(E)-4-methylbenzylidene]-4-oxopiperidine-1-carboxamide]	47 ± 2.17
> 50	> 50	–	> 50	–	O=C1/C(=C/c2cccs2)CN(C(=O)NCc2ccccc2)C/C1=C\c1cccs1 [Compound 51, (3E,5E)-N-Benzyl-4-oxo-3,5-bis(thiophen-2-ylmethylene)piperidine-1-carboxamide]	> 50
